For test [1], the target named is T1, bovine serum albumin (BSA) (Bos taurus, UniProt P02769).
T1 construct: purchased AMRESCO
Briefly: Fluorescence quenching of BSA by CQAs (Stern-Volmer, double-log, Van't Hoff). The settings on record: for ΔH / ΔS: 300-310 K; for Kd: read-out: Ka (converted); for λa-λj (shift of BSA fluorescence emission): CQA 0 to 5.0 × 10^−6 M. The test is classed as binding. On the procedure:
Fluorescence analysis was determined with the LS-45 fluorophotometer (PerkinElmer, USA). […] The synchronous fluorescence spectrum was recorded at Δλ = 15/60 nm at 300 K. The concentration of BSA was set as 0.2 × 10^−6 M, and the concentrations of CQAs were set as 0~5.0 × 10^−6 M by successive additions. The 3D fluorescence spectrum of BSA (0.2 × 10^−6 M) and the BSA-drug (10:1 mol ratio of protein to ligand) complexes were determined at 200–350 nm in 5 nm increments, and the emission spectrum was set as between 200 and 500 nm.
Static and dynamic quenching were two kinds of quenching mechanisms. Both of them followed the equation of Stern-Volmer (Tang and Jia, [2013]): […]
where F0 and F were the fluorescence intensities of BSA with or without CQAs, respectively; KSV were the Stern-Volmer quenching constants; [Q] was the concentration of CQAs.
Binding constants and binding sites could be determined by double logarithmic curve equation (Hemmateenejad et al., [2012]):
(2) logF0-F/F=logKa+nlog[Q]
where F0 and F were the fluorescence intensities of BSA with or without CQAs, respectively; [Q] was the concentrations of CQAs; Ka was the binding constants and n was the number of binding sites.
The binding force between drugs and BSA was non-covalent interaction, like hydrogen-bond interaction, electrostatic forces, hydrophobic effects and Van der Waals forces (Cheng et al., [2015]). The binding parameters could be employed to determine the types of binding forces. The value of ΔH (enthalpy change) and ΔS (entropy changes) could be determined by Van't Hoff equation: […]
where Ka were the binding constants, R were the gas constants and T was the temperatures. Free energy changes (ΔG) could be determined by the following equation: […]

In another test the target is T2, BSA (Bos taurus, UniProt P02769).
T2 construct: purchased AMRESCO
T2 sequence (P02769 25-607): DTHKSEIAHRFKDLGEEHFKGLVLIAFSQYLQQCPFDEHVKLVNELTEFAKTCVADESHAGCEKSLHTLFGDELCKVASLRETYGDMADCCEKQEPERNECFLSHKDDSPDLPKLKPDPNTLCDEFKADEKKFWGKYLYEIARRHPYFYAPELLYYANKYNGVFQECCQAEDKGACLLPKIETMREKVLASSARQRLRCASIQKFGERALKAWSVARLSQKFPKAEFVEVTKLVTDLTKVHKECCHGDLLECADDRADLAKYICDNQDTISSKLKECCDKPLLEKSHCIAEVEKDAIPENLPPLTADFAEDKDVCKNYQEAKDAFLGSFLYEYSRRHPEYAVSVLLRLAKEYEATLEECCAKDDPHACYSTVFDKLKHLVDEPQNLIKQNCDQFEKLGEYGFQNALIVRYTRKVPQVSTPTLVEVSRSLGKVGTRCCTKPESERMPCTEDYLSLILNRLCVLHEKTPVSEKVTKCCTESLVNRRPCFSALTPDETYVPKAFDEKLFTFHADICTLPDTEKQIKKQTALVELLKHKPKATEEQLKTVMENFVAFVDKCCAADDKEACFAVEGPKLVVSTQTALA
Briefly: CD measurement of BSA secondary structure (α-helix content). Further details: species or system bovine. On the procedure: The J-815 automatic recording spectropolarimeter (Japan) equipped with 1.0 mm path length quartz cuvettes was employed to determine the CD spectrum of BSA and CQAs-BSA. All the CD spectra were recorded from 190 to 250 nm at 300 K, and the scanning speeds were all set as 50 nm·min^−1. The concentration of BSA and CQAs was 2.0 × 10^−6 and 10.0 × 10^−6 M, respectively. Each spectrum was scanned for successive three times and corrected by corresponding buffer solution.
Far-UV CD spectrum could monitor the secondary structures changes of BSA. To further study the interaction of CQAs and BSA and accurately detect the changes of the secondary structures of BSA, CD spectra of BSA was performed in with or without CQAs in different solvent systems.

In a further test the test system is bovine serum albumin. The settings on record: ref Li et al., 2010; cited from earlier work.

Values joined by “and” are separate entries in the source; they are usually repeats but may differ in a detail not shown here. Equal entries are not always repeated. Where two headings read alike, the source gives them in different places.

T1 sequence (P02769 25-607): as above

Take `O=C(C=Cc1ccc(O)c(O)c1)OC1CC(O)(C(=O)O)CC(O)C1O` (stereo not shown) [3-CQA, 3-O-caffeoylquinic acid]: the Fluorescence quenching rate in test [1] is 40.14% and 32.93%. Besides, the ΔG was -8.535 kcal/mol in test [1] (H2O, 305 K); -8.05 kcal/mol in test [1] (H2O, 310 K); -8.081 kcal/mol in test [1] (PBS, 310 K); -9.498 kcal/mol in test [1] (Tris-HCl, 300 K). Further, at BSA (Tris-HCl buffer), the “increase of α-helix content of BSA” value stood at 5.15%.
As to `O=C(C=Cc1ccc(O)c(O)c1)OC1C(O)CC(O)(C(=O)O)CC1O` (stereo not shown) [4-CQA, 4-O-caffeoylquinic acid], the values for the Fluorescence quenching rate in test [1] (H2O), in test [1] (PBS) and in test [1] (Tris-HCl) were 30.99%, 22.65% and 35.83%, respectively. Moreover, the ΔH was -60.053 kcal/mol in test [1] (H2O), -64.912 kcal/mol in test [1] (PBS) and -52.079 kcal/mol in test [1] (Tris-HCl). In addition, the ΔS is given as -705.46 J·mol^−1·k^−1 in test [1] (H2O), -774.09 J·mol^−1·k^−1 in test [1] (PBS) and -588.56 J·mol^−1·k^−1 in test [1] (Tris-HCl). Also, the KSV turned out to be 83600 L/mol in test [1] (H2O, 300 K); 60500 L/mol in test [1] (H2O, 305 K); 57700 L/mol in test [1] (H2O, 310 K); 132900 L/mol in test [1] (PBS, 300 K); 98000 L/mol in test [1] (PBS, 305 K); 60000 L/mol in test [1] (PBS, 310 K). Further, the KSV in test [1] (Tris-HCl, 300 K) was found to be 189400 L/mol; in test [1] (Tris-HCl, 305 K) it was 120400 L/mol; in test [1] (Tris-HCl, 310 K) it was 47100 L/mol. Moreover, the “n (number of binding sites)” value was determined as 1.3458 in test [1] (H2O, 300 K); 1.3177 in test [1] (H2O, 305 K); 1.1102 in test [1] (H2O, 310 K); 1.3138 in test [1] (PBS, 300 K); 1.2398 in test [1] (PBS, 305 K); 1.0835 in test [1] (PBS, 310 K). For the same molecule, the “n (number of binding sites)” value is 1.4214 in test [1] (Tris-HCl, 300 K); 1.2871 in test [1] (Tris-HCl, 305 K); 1.2434 in test [1] (Tris-HCl, 310 K). For the same molecule, the ΔG in test [1] (H2O, 300 K) was -9.469 kcal/mol; in test [1] (H2O, 305 K), -8.626 kcal/mol; in test [1] (H2O, 310 K), -7.784 kcal/mol; in test [1] (PBS, 300 K), -9.407 kcal/mol; in test [1] (PBS, 305 K), -8.482 kcal/mol; in test [1] (PBS, 310 K), -7.557 kcal/mol. For the same molecule, the ΔG is -9.878 kcal/mol in test [1] (Tris-HCl, 300 K); -9.178 kcal/mol in test [1] (Tris-HCl, 305 K); -8.473 kcal/mol in test [1] (Tris-HCl, 310 K). The Kd was 173 nM in test [1] (H2O, 300 K); 347 nM in test [1] (H2O, 305 K); 4520 nM in test [1] (H2O, 310 K); 175 nM in test [1] (PBS, 300 K); 532 nM in test [1] (PBS, 305 K); 5920 nM in test [1] (PBS, 310 K). Further, the Kd in test [1] (Tris-HCl, 300 K) was 30.1 nM; in test [1] (Tris-HCl, 305 K), 238 nM; in test [1] (Tris-HCl, 310 K), 1130 nM. Also, the “λa-λj (shift of BSA fluorescence emission)” value in test [1] (H2O) is -5.5 nm; in test [1] (PBS) it was -4 nm; in test [1] (Tris-HCl), 3.5 nm. For the same molecule, in test [1] (Tris-HCl), the “binding affinity change (times) when temperature rises from 300 to 310 K” value is listed as 37.4. Further, the “increase of α-helix content of BSA” value on BSA (H2O) is recorded as 4.84%; at BSA (PBS buffer) it was 1.97%; at BSA (Tris-HCl buffer), 14.14%.
In the case of `O=C(/C=C/c1ccc(O)c(O)c1)O[C@@H]1C[C@](O)(C(=O)O)C[C@@H](O)[C@H]1O` [5-CQA, 5-O-caffeoylquinic acid], in the test with bovine serum albumin, the binding constant entry was “higher than that of caffeic acid”. Besides, the Fluorescence quenching rate in test [1] is 35.34% and 32.09%. For the same molecule, the “n (number of binding sites)” value in test [1] is given as 0.9251. The ΔG in test [1] (Tris-HCl, 300 K) is -10.18 kcal/mol; in test [1] (Tris-HCl, 305 K), -9.252 kcal/mol; in test [1] (Tris-HCl, 310 K) it was -8.325 kcal/mol. The “increase of α-helix content of BSA” value at BSA (H2O) is reported as 0.69%; at BSA (PBS buffer), 0.08%; at BSA (Tris-HCl buffer) it was 8.16%.

Values taken from paper PMC6909939, “Study on the Interactions Between Caffeoylquinic Acids With Bovine Serum Albumin: Spectroscopy, Antioxidant Activity, LC-MS^n, and Molecular Docking Approach” (Frontiers in Chemistry, 2019).
